Results: article PMC5474694, “Fragment-Sized EthR Inhibitors Exhibit Exceptionally Strong Ethionamide Boosting Effect in Whole-Cell Mycobacterium tuberculosis Assays” (ACS Chemical Biology, 2017)

What was measured:
[1] = system: M. tuberculosis infected murine macrophages; assay: Macrophage (intracellular) assay; format: cell-based, M. tuberculosis H37Rv-GFP in Raw264.7 macrophages; conditions: for concentrations at which intrinsic bactericidal activity against M. tuberculosis is seen: compound alone, without ethionamide; for IC50 / EC50: Mycobacterium tuberculosis, Macrophage; for IC50: in the absence of ethionamide, read-out: IC50, intrinsic bactericidal effect; for EC50: in the presence of 1/10 of the MIC of ethionamide
M. tuberculosis [2] = system: M. tuberculosis; design: method as in PMID 24313835; conditions: cited from earlier work
EthR = EthR (Mycobacterium tuberculosis, UniProt P9WMC1); assay: Isothermal titration calorimetry (ITC) binding to EthR; conditions: n = 1, one site binding model
Chain of EthR (P9WMC1 whole entry, looked up): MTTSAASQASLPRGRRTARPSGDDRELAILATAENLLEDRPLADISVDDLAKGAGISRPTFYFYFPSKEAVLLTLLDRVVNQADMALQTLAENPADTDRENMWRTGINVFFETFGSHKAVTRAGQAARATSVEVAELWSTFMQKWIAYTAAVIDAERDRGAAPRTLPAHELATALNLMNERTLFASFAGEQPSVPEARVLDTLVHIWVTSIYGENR
Experimental: Isothermal titration calorimetry (ITC)
An aqueous solution of the fragment to be tested (1 mM) was prepared containing NaCl (300 mM), Tris.HCl (20 mM, pH = 8.0), d6-DMSO (10% v/v) and glycerol (to match the 10% v/v glycerol content in the EthR stock solution). A separate aqueous solution of EthR (50 μM) containing NaCl (300 mM), Tris.HCl (20 mM, pH = 8.0) and DMSO-d6 (10% v/v) was prepared and placed in the sample cell of a MicroCal iTC200 microcalorimeter (GE Healthcare). The fragment solution was then titrated to the EthR solution over 19 or 39 injections (first injection of 0.4 μl and subsequent injections of 2.0 μL or 1.0 μL). Data was fitted to a one site binding model using Origin software.
Figure S10 ITC trace for cyclopentylmethyl pyrrolidine-1-carboxylate 2 binding to EthR.
(1 picture or pasted object on this page, not shown here)

M. tuberculosis [3] = format: cell-based, Mycobacterium tuberculosis (ATCC 27294); conditions: for MEC (minimum effective concentration) / MEC for the 10-fold boosting of ethionamide / ethionamide boosting ability in M. tuberculosis culture: in the presence of 1/10 of the MIC of ethionamide; for MEC (minimum effective concentration): mean ± standard deviation of two independent replicates; for fold improvement in MEC on the starting fragment 1: relative to fragment 1; for fold drop in potency (MEC) on addition of an extra methylene unit to the linker: 15 relative to 14, 29 relative to 28

Structure (SMILES): O=C(CCC1CCCC1)N1CCCC1 [Compound 1]
- ethionamide boosting in the macrophage assay [1]: significant boosting of ethionamide
- concentrations at which intrinsic bactericidal activity against M. tuberculosis is seen [1]: higher than 1 μM
- MIC of ethionamide in the presence of fragment 1 (M. tuberculosis [2]; fragment 1 at a concentration of 1 μM): approximately 2 μM

Structure (SMILES): O=C(OCC1CCCC1)N1CCCC1 [Compound 2, cyclopentylmethyl pyrrolidine-1-carboxylate]
- Kd (EthR): 15 µM
- MEC (minimum effective concentration) (M. tuberculosis [3]): 19 ± 7.5 µM

Structure (SMILES): O=C(NCC1CCCC1)N1CCCC1 [Compound 3]
- Kd (EthR): 6 µM
- MEC (minimum effective concentration) (M. tuberculosis [3]): >50 µM

Structure (SMILES): O=C(NCC1CCCC1)C1CCCC1 [Compound 4]
- Kd (EthR): 11 µM
- MEC (minimum effective concentration) (M. tuberculosis [3]): >50 µM

Structure (SMILES): O=S(=O)(CCC1CCCC1)N1CCCC1 [Compound 5]
- Kd (EthR): 16 µM
- MEC (minimum effective concentration) (M. tuberculosis [3]): >50 µM

Structure (SMILES): O=S(=O)(NCC1CCCC1)N1CCCC1 [Compound 6]
- Kd (EthR): 20 µM
- MEC (minimum effective concentration) (M. tuberculosis [3]): >50 µM

Structure (SMILES): O=C(/C=C/c1ccoc1)N1CCCC1 [Compound 7]
- Kd (EthR): 20 µM
- MEC (minimum effective concentration) (M. tuberculosis [3]): >50 µM

Structure (SMILES): O=C(CCc1ccoc1)N1CCCC1 [Compound 8]
- Kd (EthR): 22 µM
- MEC (minimum effective concentration) (M. tuberculosis [3]): >50 µM

Structure (SMILES): O=C(NCc1ccoc1)N1CCCC1 [Compound 9]
- MEC (minimum effective concentration) (M. tuberculosis [3]): >50 µM

Structure (SMILES): O=C(NCC1CCOC1)N1CCCC1 (centres unmarked) [Compound 10]
- MEC (minimum effective concentration) (M. tuberculosis [3]): >50 µM

Structure (SMILES): O=C(C1CCCC1)N1CCCC1 [Compound 11]
- MEC (minimum effective concentration) (M. tuberculosis [3]): > 50 µM

Structure (SMILES): O=C(CC1CCCC1)N1CCCC1 [Compound 12]
- MEC (minimum effective concentration) (M. tuberculosis [3]): 19 ± 7.5 µM

Structure (SMILES): O=C(CCC1CCCCC1)N1CCCC1 [Compound 13]
- MEC (minimum effective concentration) (M. tuberculosis [3]): 0.8 ± 0.5 µM
- fold improvement in MEC on the starting fragment 1 (M. tuberculosis [3]): approximately 4 fold

Structure (SMILES): O=C(CCCC1CCCCC1)N1CCCC1 [Compound 14]
- MEC for the 10-fold boosting of ethionamide (M. tuberculosis [3]): 400 nM
- MEC (minimum effective concentration) (M. tuberculosis [3]): 0.4 ± 0.2 µM
- fold improvement in MEC on the starting fragment 1 (M. tuberculosis [3]): approximately 7 fold
- IC50 [1]: ~1 µM
- EC50 [1]: 0.04 µM

Structure (SMILES): O=C(CCCCC1CCCCC1)N1CCCC1 [Compound 15]
- fold drop in potency (MEC) on addition of an extra methylene unit to the linker (M. tuberculosis [3]): 4 fold
- MEC (minimum effective concentration) (M. tuberculosis [3]): 1.6 ± 0.8 µM

Structure (SMILES): O=C(N1CCCC1)C12CC3CC(CC(C3)C1)C2 [Compound 16]
- MEC (minimum effective concentration) (M. tuberculosis [3]): > 50 µM

Structure (SMILES): O=C(CC12CC3CC(CC(C3)C1)C2)N1CCCC1 [Compound 17]
- fold increase in ethionamide boosting ability (M. tuberculosis [3]; 17 relative to the inactive amide 16): over 30 fold
- MEC (minimum effective concentration) (M. tuberculosis [3]): 1.6 ± 0.8 µM

Structure (SMILES): CCCCC(=O)N1CCCC1 [Compound 18]
- MEC (minimum effective concentration) (M. tuberculosis [3]): > 50 µM

Structure (SMILES): CCCC(=O)N1CCCC1 [Compound 19]
- MEC (minimum effective concentration) (M. tuberculosis [3]): > 50 µM

Structure (SMILES): O=C(OCC1CCCC1)N1CCCCC1 [Compound 20]
- ethionamide boosting ability in M. tuberculosis culture (M. tuberculosis [3]): loss of ethionamide boosting ability
- MEC (minimum effective concentration) (M. tuberculosis [3]): > 50 µM

Structure (SMILES): O=C(OCC1CCCC1)N1CCCCCC1 [Compound 21]
- ethionamide boosting ability in M. tuberculosis culture (M. tuberculosis [3]): loss of ethionamide boosting ability
- MEC (minimum effective concentration) (M. tuberculosis [3]): > 50 µM

Structure (SMILES): O=C(OCCC1CCCC1)N1CCCC1 [Compound 22]
- MEC (minimum effective concentration) (M. tuberculosis [3]): 1.6 ± 0.9 µM
- ethionamide boosting in the macrophage assay [1]: significant boosting of ethionamide
- concentrations at which intrinsic bactericidal activity against M. tuberculosis is seen [1]: higher than 1 μM

Structure (SMILES): O=C(OCC1CC1)N1CCCC1 [Compound 23]
- MEC (minimum effective concentration) (M. tuberculosis [3]): 3.1 ± 1.8 µM
- ethionamide boosting in the macrophage assay [1]: significant boosting of ethionamide

Structure (SMILES): O=C(OCC1CCC1)N1CCCC1 [Compound 24]
- MEC (minimum effective concentration) (M. tuberculosis [3]): 3.1 ± 1.8 µM

Structure (SMILES): O=C(OCC1CCCCC1)N1CCCC1 [Compound 25]
- MEC (minimum effective concentration) (M. tuberculosis [3]): 1.6 ± 0.9 µM
- ethionamide boosting in the macrophage assay [1]: significant boosting of ethionamide
- concentrations at which intrinsic bactericidal activity against M. tuberculosis is seen [1]: higher than 1 μM

Structure (SMILES): CN(C)C(=O)OCC1CCCC1 [Compound 26]
- MEC (minimum effective concentration) (M. tuberculosis [3]): 6.3 ± 3.6 µM

Structure (SMILES): O=C(OCC1CCCC1)N1CCC1 [Compound 27]
- MEC (minimum effective concentration) (M. tuberculosis [3]): 13 ± 7.2 µM

Structure (SMILES): O=C(OCCCC1CCCC1)N1CCCC1 [Compound 28]
- MEC for the 10-fold boosting of ethionamide (M. tuberculosis [3]): 400 nM
- MEC (minimum effective concentration) (M. tuberculosis [3]): 0.4 ± 0.2 µM
- fold improvement in MEC on the starting fragment 1 (M. tuberculosis [3]): roughly 7 fold
- IC50 [1]: ~1 µM
- EC50 [1]: 0.05 µM

Structure (SMILES): O=C(OCCCCC1CCCCC1)N1CCCC1 [Compound 29]
- fold drop in potency (MEC) on addition of an extra methylene unit to the linker (M. tuberculosis [3]): roughly 16 fold
- MEC (minimum effective concentration) (M. tuberculosis [3]): 6.3 ± 3.6 µM

Structure (SMILES): CC(C)(C)OC(=O)N1CCCC1 [Compound 30, Boc-pyrrolidine]
- MEC (minimum effective concentration) (M. tuberculosis [3]): > 50 µM

Structure (SMILES): CCc1cc(C(N)=S)ccn1 [ethionamide]
- MIC of ethionamide (M. tuberculosis [2]; ethionamide alone): 15 µM
